The values below come from PMC10302187, “WssI from the Gram-negative bacterial cellulose synthase is an O-acetyltransferase that acts on cello-oligomers with several acetyl donor substrates” (The Journal of Biological Chemistry, 2023).

For assay [1], the target named is T1, AiWssI^ΔN (Achromobacter insuavis, UniProt A0A6J5I893). The experiment in a line: Follow-up standard MU-Ac esterase assay (dose-response). Type of assay: biochemical. The method, then:
The fluorescence substrate, MU-Ac, was also tested as a substrate of WssI^ΔN for its amenability to the planned high-throughput analyses (see later). Reaction setups were exactly the same as that for pNP-Ac, with the exceptions of the assay buffer (50 mM sodium phosphate, 150 mM NaCl, 1 mM DTT, pH 7), MU-Ac as the acetyl donor (final concentration of 0.5 mM along with 5% [v/v] dimethyl sulfoxide, as this was the solvent for MU-Ac), and the assay was performed in fluorescence compatible microplates (Grenier BioOne) and monitored with excitation and emission wavelengths of 365 and 450 nm, respectively for 60 min.
(§1) All inhibitor compounds for confirmatory assays were purchased from Enamine Ltd, with the exception of compound 1 (Santa Cruz Biotechnology, Inc), Compounds 2 and 7 (Molport via Maybridge Ltd and Vitas M Chemical Ltd, respectively) and compound 6 (Mcule, Inc). The dose–response curves were generated using either CDD Vault Analysis Software (Collaborative Drug Discovery, Inc) or GraphPad Prism, version 8.4.3. Inhibition constants (Ki) were calculated using the Cheng–Prusoff equation for competitive inhibition that is calculated using the KM of the uninhibited enzyme, the substrate concentration (S) at which the IC50 values were calculated, and the IC50 value of the inhibitor ([92]): Ki=IC50/(S/KM+1)

For assay [2], the target named is serine/threonine phosphatase calcineurin. More on the design: method as in PMID 9763224. As to conditions: p-nitrophenyl phosphate as a substrate; cited from earlier work.
In assay [3] the target is T1, AiWssI^ΔN. The experiment in a line: HTS MU-Ac fluorescence esterase dose-response assay. The format is biochemical. As to conditions: MU-Ac as esterase substrate. The method, then: Large-scale HTS was conducted at the SPARC BioCentre Drug Discovery (Hospital for Sick Children, Toronto, Canada) with a subset of the Chembridge DIVERset library collection (as well as 135 manually selected compounds based on success against other SGNH enzymes) in a 384-well format. The assay was performed in singlet during the primary screen of the entire compound list and in triplicate for a follow-up confirmatory screen. Reaction setups for both screens were conducted with 50 mM sodium phosphate buffer (pH 6.5), 3 μM AiWssI^ΔN and 0.5 mM MU-Ac (final concentration of 5% [v/v] dimethyl sulfoxide) using a Thermo MultiDrop Combi Reagent Dispenser. The reaction was initiated by the addition of 20 μM of the test compounds using an Echo 550 acoustic dispenser (Labcyte). Fluorescence was monitored with a SynergyNeo microplate reader (BioTek) using excitation and emission wavelengths of 365 and 450 nm, respectively, for approximately 45 min alongside appropriate negative and positive controls. […] The hits remaining after the primary and confirmatory screening were examined further to identify possible PAINS, which could result in false-positive results ([91]). Further refinement of the lead candidates was also conducted by assessing the fluorescence quenching potential of lead compound hits by assaying the quenching potential of different compound concentrations (10.1 μM and/or 50.5 μM) against the fluorescence of 4-methylumbeliferone (247 μM) to reveal any potential false positives that were not actually because of AiWssI^ΔN activity. All fluorescence readings were normalized using the following equation to determine the percentage of quenching ([92]): NormalizedFlouresence=Fobs−μFmin/μFmax−μFminx100% In the aforementioned formula, Fobs is the sample fluorescence value, μFmin is the mean fluorescence value of the negative controls, and μFmax is the mean fluorescence value of the positive controls.
as §1

The next assay deals with T2, PfWssI^ΔN (Pseudomonas fluorescens, UniProt Q8RSY4).
T2 sequence (Q8RSY4 92-374): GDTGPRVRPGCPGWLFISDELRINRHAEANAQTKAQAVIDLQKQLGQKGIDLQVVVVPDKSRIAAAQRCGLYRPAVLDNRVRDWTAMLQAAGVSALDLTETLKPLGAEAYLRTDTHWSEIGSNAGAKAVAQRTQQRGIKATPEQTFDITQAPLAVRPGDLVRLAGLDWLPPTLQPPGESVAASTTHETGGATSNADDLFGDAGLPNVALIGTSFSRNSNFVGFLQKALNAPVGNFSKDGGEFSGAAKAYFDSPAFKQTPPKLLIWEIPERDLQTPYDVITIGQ
The format is biochemical. The conditions noted are these: 1 h incubation with reagent (1 mM PMSF, 5 mM MSF, 5 mM EDTA, 0.1 mM E-64, 20 μM Pepstatin A); 6 mM pNP-Ac, pH 7. On the procedure: (§2) The enzymatic rate of the WssI^ΔN proteins was measured using chromogenic assays in a 50 mM sodium phosphate-buffered (pH 7) solution, with WssI^ΔN (3 μM unless specified otherwise) and were initiated by the addition of pNP-Ac to a final concentration of 6 mM (dissolved in 5% [v/v] ethanol). Assay samples and corresponding controls (i.e., containing no WssI^ΔN and/or substrate) were run in quadruplicate, and the progress of the reaction was monitored at 405 nm (Cytation5) for 30 min in 1 min intervals following a 5 s initial linear shake to mix contents thoroughly. These conditions were deemed standard assay conditions for subsequent trials except where modifications are noted. The activity assay to determine optimal pH and buffer type was performed with 2-(N-morpholino)ethanesulfonic acid over pH ranges of 5.5 to 6.5, sodium phosphate for pH 6.5 to 7.5, and Tris for the final range of 7.5 to 9.25. In addition, standard assay conditions were modified by incorporating various inhibitors and common reducing agents to determine effects on WssI^ΔN activity. […] To test the effects of the absence of DTT, trials were conducted where DTT was removed from all purification and dialysis buffers, unless mentioned otherwise. Data are either reported in specific activity as units of esterase activity (i.e., the amount of enzyme required to release 1 μmol of p-nitrophenol per min^−1 per mg of protein^−1) or as percent residual activity when compared with the WssI^ΔN controls (i.e., containing no inhibitors).

In assay [4] the target is T1, AiWssI^ΔN. Type of assay: biochemical. The conditions noted are these: 1 h incubation with reagent (1 mM PMSF, 5 mM MSF, 5 mM EDTA, 0.1 mM E-64, 20 μM Pepstatin A); 6 mM pNP-Ac, pH 7. The method, then: as §2

SMILES strings stand for the structures.

T1 sequence (A0A6J5I893 entry or part of it, stated change not applied): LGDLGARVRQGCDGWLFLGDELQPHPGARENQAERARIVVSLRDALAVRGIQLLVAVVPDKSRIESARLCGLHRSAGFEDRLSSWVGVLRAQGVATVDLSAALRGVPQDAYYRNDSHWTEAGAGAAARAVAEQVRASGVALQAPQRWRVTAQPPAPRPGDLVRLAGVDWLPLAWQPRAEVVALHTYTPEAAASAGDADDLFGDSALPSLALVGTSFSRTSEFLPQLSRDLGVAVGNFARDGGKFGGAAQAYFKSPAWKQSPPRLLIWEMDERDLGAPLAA

As usually defined, the IC50 is the midpoint of a concentration-inhibition curve. Usually Ki stands for a dissociation constant, usually derived from enzyme kinetics or from competition with a known ligand. As for `N#CC(C#N)=C(N)/C(C#N)=C/c1ccc(O)cc1` [Compound 1, (3Z)-2-Amino-3-[(4-hydroxyphenyl)-methylidene]prop-1-ene-1,1,3-tricarbonitrile], the IC50 was 28.4 µM on AiWssI^ΔN [1] (MU-Ac (0.5 mM) as esterase substrate, read-out: Second MU-Ac IC50); 30 µM in assay [2]; 10.1 µM at AiWssI^ΔN [3]. Besides, the inhibition constant Ki on AiWssI^ΔN [1] (MU-Ac as esterase substrate, Cheng-Prusoff, competitive inhibition, read-out: Second MU-Ac Ki) amounted to 15.1 µM.
For the compound `CC(C)C[C@H](NC(=O)[C@H]1O[C@@H]1C(=O)O)C(=O)NCCCCN=C(N)N` [E-64], the “Residual activity PfWssI^ΔN” value at PfWssI^ΔN was 107.8 ± 10.8%. For the same compound, on AiWssI^ΔN [4], the “Residual activity AiWssI^ΔN” value came out at 130.8 ± 9.1%.
Take `CS(=O)(=O)F` [MSF, methanesulfonyl fluoride]: on PfWssI^ΔN, the “Residual activity PfWssI^ΔN” value was 112.1 ± 4.4%. Moreover, the “Residual activity AiWssI^ΔN” value on AiWssI^ΔN [4] stood at 95.0 ± 6.2%.
The corresponding values for `O=S(=O)(F)Cc1ccccc1` [PMSF] are 103.2 ± 4.2% and 106.3 ± 6.8%.
